“And” between values parts separate entries of the source, which are not always exact repeats. Equal values may be shown once. Inconclusive results and toxic doses are left out. Rule as the data show it: active = T/C of 150% or more; inactive = T/C below 125%.
System: L1210 leukemia ip in BDF1 mice, survival T/C
Test: NCI In Vivo Anticancer Drug Screen. Data for tumor model L1210 Leukemia (intraperitoneal) in B6D2F1 (BDF1) mice
Details: endpoint: mean survival time, higher = longer survival
Procedure, shortened: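 Read-out is survival time, reported as the treated-group measurement over the vehicle-control measurement.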

[1] = dose: 100.0 mg/kg/injection, schedule: Q01DX001 (ip), vehicle: Klucel (hydroxypropylcellulose) (HPC)
[2] = dose: 200.0 mg/kg/injection, schedule: Q01DX001 (ip), vehicle: Klucel (hydroxypropylcellulose) (HPC)
[3] = dose: 400.0 mg/kg/injection, schedule: Q01DX001 (ip), vehicle: Klucel (hydroxypropylcellulose) (HPC)
[4] = dose: 100.0 mg/kg/injection, schedule: Q04DX003 (ip), vehicle: Klucel (hydroxypropylcellulose) (HPC)
[5] = dose: 200.0 mg/kg/injection, schedule: Q04DX003 (ip), vehicle: Klucel (hydroxypropylcellulose) (HPC)
[6] = dose: 50.0 mg/kg/injection, schedule: Q01DX009 (ip), vehicle: saline with Tween-80
[7] = dose: 100.0 mg/kg/injection, schedule: Q01DX009 (ip), vehicle: saline with Tween-80
[8] = dose: 200.0 mg/kg/injection, schedule: Q01DX009 (ip), vehicle: saline with Tween-80
[9] = dose: 400.0 mg/kg/injection, schedule: Q01DX001 (ip), vehicle: carboxymethylcellulose (CMC)
[10] = dose: 100.0 mg/kg/injection, schedule: Q04DX002 (ip), vehicle: Klucel (hydroxypropylcellulose) (HPC)
[11] = dose: 75.0 mg/kg/injection, schedule: Q01DX001 (ip), vehicle: saline

Measured: T/C

CN(C)c1ccc(/C=N/NC(=O)c2ccccc2)cc1
inactive: dose: 100.0 mg/kg/injection, schedule: Q04DX003 (ip), vehicle: other 94 % of control | dose: 200.0 mg/kg/injection, schedule: Q04DX003 (ip), vehicle: other 97 % of control | dose: 400.0 mg/kg/injection, schedule: Q04DX003 (ip), vehicle: other 98 % of control

C=CC(OC)OC
inactive: dose: 25.0 mg/kg/injection, schedule: Q04DX003 (ip), vehicle: saline 95 % of control | dose: 50.0 mg/kg/injection, schedule: Q04DX003 (ip), vehicle: saline 93 % of control

CC(C)=NN=C(N)N
inactive: dose: 15.0 mg/kg/injection, schedule: Q01DX Z (ip), vehicle: carboxymethylcellulose (CMC) 100 % of control | dose: 15.0 mg/kg/injection, schedule: Q01DX Z (ip), vehicle: saline 107 % of control | dose: 30.0 mg/kg/injection, schedule: Q01DX Z (ip), vehicle: carboxymethylcellulose (CMC) 101 % of control | dose: 30.0 mg/kg/injection, schedule: Q01DX Z (ip), vehicle: saline 101 % of control | dose: 60.0 mg/kg/injection, schedule: Q01DX Z (ip), vehicle: carboxymethylcellulose (CMC) 96 % of control and 106 % of control | dose: 60.0 mg/kg/injection, schedule: Q01DX Z (ip), vehicle: saline 95 % of control | dose: 60.0 mg/kg/injection, schedule: Q01DX Z (oral), vehicle: saline 92 % of control | dose: 120.0 mg/kg/injection, schedule: Q01DX Z (ip), vehicle: carboxymethylcellulose (CMC) 93 % of control and 95 % of control | dose: 120.0 mg/kg/injection, schedule: Q01DX Z (ip), vehicle: saline 95 % of control | dose: 120.0 mg/kg/injection, schedule: Q01DX Z (oral), vehicle: carboxymethylcellulose (CMC) 106 % of control | dose: 120.0 mg/kg/injection, schedule: Q01DX Z (oral), vehicle: saline 109 % of control | dose: 240.0 mg/kg/injection, schedule: Q01DX Z (ip), vehicle: carboxymethylcellulose (CMC) 101 % of control | dose: 240.0 mg/kg/injection, schedule: Q01DX Z (ip), vehicle: saline 88 % of control | dose: 240.0 mg/kg/injection, schedule: Q01DX Z (oral), vehicle: carboxymethylcellulose (CMC) 102 % of control | dose: 240.0 mg/kg/injection, schedule: Q01DX Z (oral), vehicle: saline 97 % of control | dose: 480.0 mg/kg/injection, schedule: Q01DX Z (oral), vehicle: carboxymethylcellulose (CMC) 116 % of control | dose: 480.0 mg/kg/injection, schedule: Q01DX Z (oral), vehicle: saline 92 % of control

O=C(CCCC(=O)N/N=C/c1cc(Cl)ccc1O)N/N=C\c1cc(Cl)ccc1O
inactive: dose: 50.0 mg/kg/injection, schedule: Q01DX001 (ip), vehicle: saline 98 % of control | dose: 100.0 mg/kg/injection, schedule: Q01DX001 (ip), vehicle: saline 93 % of control | dose: 200.0 mg/kg/injection, schedule: Q01DX001 (ip), vehicle: saline 96 % of control | dose: 400.0 mg/kg/injection, schedule: Q01DX001 (ip), vehicle: saline 98 % of control

CC1(C)OB(C(B2OC(C)(C)C(C)(C)O2)=C(CCl)CCl)OC1(C)C
inactive: [1] 101 % of control | [2] 88 % of control | [3] 103 % of control

Cc1ccc(CNC(=O)Nc2ccccc2)c(C)c1
inactive: dose: 100.0 mg/kg/injection, schedule: Q01DX009 (ip), vehicle: other 103 % of control | dose: 200.0 mg/kg/injection, schedule: Q01DX009 (ip), vehicle: other 91 % of control | dose: 400.0 mg/kg/injection, schedule: Q01DX009 (ip), vehicle: other 101 % of control

CCCC1(CCC)c2ccccc2C(=O)c2ccccc21
inactive: [1] 105 % of control | [4] 100 % of control | [2] 96 % of control | [5] 96 % of control | [3] 105 % of control | dose: 400.0 mg/kg/injection, schedule: Q04DX003 (ip), vehicle: Klucel (hydroxypropylcellulose) (HPC) 95 % of control

O=C(/C=C(/C(=C/C(=O)c1ccccc1)c1ccccc1)c1ccccc1)c1ccccc1
inactive: dose: 50.0 mg/kg/injection, schedule: Q01DX009 (ip), vehicle: Klucel (hydroxypropylcellulose) (HPC) 102 % of control | dose: 100.0 mg/kg/injection, schedule: Q01DX009 (ip), vehicle: Klucel (hydroxypropylcellulose) (HPC) 94 % of control | dose: 200.0 mg/kg/injection, schedule: Q01DX009 (ip), vehicle: Klucel (hydroxypropylcellulose) (HPC) 87 % of control

CC(C)Nc1c(C(=O)c2ccccc2)cn(C(C)C)c1-c1ccccc1
inactive: [6] 94 % of control | [7] 91 % of control | [8] 88 % of control

Cc1cc[n+]2cc3ccc4ccccc4c3c(C)c2c1
inactive: dose: 2.0 mg/kg/injection, schedule: Q01DX015 (ip), vehicle: saline 102 % of control | dose: 3.12 mg/kg/injection, schedule: Q01DX009 (ip), vehicle: acetone 106 % of control | dose: 4.0 mg/kg/injection, schedule: Q01DX015 (ip), vehicle: saline 95 % of control | dose: 6.25 mg/kg/injection, schedule: Q01DX009 (ip), vehicle: acetone 101 % of control | dose: 8.0 mg/kg/injection, schedule: Q01DX015 (ip), vehicle: saline 101 % of control | dose: 12.5 mg/kg/injection, schedule: Q04DX003 (ip), vehicle: acetone 106 % of control | dose: 16.0 mg/kg/injection, schedule: Q01DX015 (ip), vehicle: saline 118 % of control

O=C(c1ccccc1)C(Nc1ccc(Br)cc1)Nc1ccc(Br)cc1
inactive: dose: 100.0 mg/kg/injection, schedule: Q01DX001 (ip), vehicle: carboxymethylcellulose (CMC) 96 % of control | dose: 200.0 mg/kg/injection, schedule: Q01DX001 (ip), vehicle: carboxymethylcellulose (CMC) 102 % of control | [9] 96 % of control

O=C(c1ccccc1)C1CSS(=O)(=O)C1c1ccccc1 (configuration not stated)
inactive: [1] 97 % of control | [2] 99 % of control | [3] 92 % of control

Cc1ccc(C(=O)C=Nc2ccc(C(=O)O)cc2)cc1
inactive: [4] 97 % of control | [5] 97 % of control

CCOC(=O)C(=CNc1cc(NC(C)=O)nc(SC)n1)C(=O)OCC
inactive: [10] 96 % of control | dose: 200.0 mg/kg/injection, schedule: Q04DX002 (ip), vehicle: Klucel (hydroxypropylcellulose) (HPC) 103 % of control | dose: 400.0 mg/kg/injection, schedule: Q04DX002 (ip), vehicle: Klucel (hydroxypropylcellulose) (HPC) 96 % of control

O=S1(=O)N=C(c2ccccc2)CC(c2ccccc2)N1 (configuration not stated)
inactive: dose: 25.0 mg/kg/injection, schedule: Q01DX009 (ip), vehicle: saline with Tween-80 87 % of control | [6] 96 % of control | dose: 50.0 mg/kg/injection, schedule: Q04DX003 (ip), vehicle: saline with Tween-80 98 % of control | [7] 94 % of control | dose: 100.0 mg/kg/injection, schedule: Q04DX003 (ip), vehicle: saline with Tween-80 93 % of control | [8] 93 % of control | dose: 200.0 mg/kg/injection, schedule: Q04DX003 (ip), vehicle: saline with Tween-80 86 % of control

CC(CNC1CCCCC1)OC(=O)c1ccc(N)cc1 (configuration not stated)
inactive: [11] 100 % of control

NC(CSS(=O)(=O)O)=NCCc1ccc(O)cc1
inactive: dose: 25.0 mg/kg/injection, schedule: Q04DX002 (ip), vehicle: Klucel (hydroxypropylcellulose) (HPC) 110 % of control | [10] 90 % of control and 91 % of control

Oc1ccc(N=Nc2ccccc2)c(O)c1.Oc1ccc(N=Nc2ccccc2)c(O)c1.[Cu]
inactive: dose: 50.0 mg/kg/injection, schedule: Q01DX001 (ip), vehicle: carboxymethylcellulose (CMC) 90 % of control | [9] 87 % of control

CN(C)c1ncnc2c1ncn2C1OC(CO)C(N(C)C)C1O (configuration not stated)
inactive: dose: 100.0 mg/kg/injection, schedule: Q01DX005 (ip), vehicle: saline 103 % of control | dose: 200.0 mg/kg/injection, schedule: Q01DX005 (ip), vehicle: saline 95 % of control

NC(CC(=O)O)c1cccs1 (configuration not stated)
inactive: dose: 100.0 mg/kg/injection, schedule: Q04DX002 (ip), vehicle: saline 95 % of control | dose: 200.0 mg/kg/injection, schedule: Q04DX002 (ip), vehicle: saline 95 % of control | dose: 400.0 mg/kg/injection, schedule: Q04DX002 (ip), vehicle: saline 102 % of control

O=CN/N=C/c1cccc([N+](=O)[O-])c1
inactive: [11] 95 % of control | dose: 150.0 mg/kg/injection, schedule: Q01DX001 (ip), vehicle: saline 95 % of control | dose: 300.0 mg/kg/injection, schedule: Q01DX001 (ip), vehicle: saline 92 % of control
